Reference: US8034579B2, “Proteins with enhanced functionality and methods of making novel proteins using circular permutation” (Emory University, priority 2005, dated 2011)

Tests used:
Format in all cases: biochemical
[1] = molecular target: T1, Candida antarctica lipase B (CALB) circularly permuted variant cp150, His-S150A/149 (Moesziomyces antarcticus, UniProt P41365); assay: Initial rate of hydrolysis of DiFMU octanoate, cp150 (His)
T1 construct: Pichia pastoris, purified
Text: (§1) Kinetic analysis of protein variants: To examine the impact of circular permutation on catalysis eleven functional CALB variants with termini in or near the active site were selected for detailed kinetic characterization. The locations of the termini in these variants are shown on the structure of CALB in FIG. 6; the numbers correspond to the amino acid residue of the new terminus. Following overexpression in P. pastoris, the selected circularly permuted proteins were purified to homogeneity. The catalytic performance of these variants was determined in activity assays with two standard lipase substrates, measuring the initial rates of hydrolysis of the chromogenic substrate p-nitrophenol butyrate (pNB) and the fluorogenic substrate 6,8-difluoro-4-methylumbelliferyl (DiFMU) octanoate.
(§2) The overexpression and purification of wild type CALB was performed as described in Rotticci-Mulder, J. C. et al., Protein Expr Purif 2001, 21, (3), 386-92, which is hereby incorporated by reference. The same protocol was adopted for the isolation of circular permutation variants of CALB. Briefly, pPIC9-ca/B was linearized by SacI digestion and electroporated into P. pastoris cells (GS115). Aliquots were plated on MD His^− plates and incubated at 30° C. Colonies appeared on plates after 2 days of incubation. A single colony was picked to inoculate 25 ml BMGY medium and the culture was incubated at 30° C. until it reached an OD600 of 2-6. The cells were harvested and resuspended in BMMY medium to an OD600 of 1. Protein expression was induced by addition of methanol to a final concentration of 0.5% (v/v) every 24 hours. After 4 days of incubation, the culture medium containing the lipase was separated from the cells by centrifugation (1500 g, 4° C., 10 min).
(§3) Lipase activity was determined by measuring the initial hydrolysis rate of p-NB and DiFMU octanoate at room temperature on a Synergy-HT microtiterplate reader (Bio-Tek Instruments, Winooski, Vt.). Stock solutions of p-NB (200 mM) and DiFMU octanoate (3 mM) were prepared in DMSO. p-NB hydrolysis over a substrate range of 0-1.6 mM was measured in 50 mM K-phosphate buffer (pH 7.5) at 400 nm ( ? for p-NB=13260 M^1 cm^−1) as described in Bender, M. L. et al., J Am Chem Soc 1968, 90, (1), 201-7, which is hereby incorporated by reference. The rate of DiFMU octanoate hydrolysis was determined by measuring the DiFMU formation over a substrate range of 0-12 μM in 50 mM K-phosphate buffer (pH 7.0) at an excitation/emission wavelength 360/460 nm. Kinetic constants were calculated by fitting the initial rates to the Michaelis-Menten equation using the Origin® software (version 7; OriginLab Corporation).

[2] = molecular target: T2, Candida antarctica lipase B (CALB) circularly permuted variant cp144, His-L144/A141 (Moesziomyces antarcticus, UniProt P41365); assay: Initial rate of hydrolysis of DiFMU octanoate, cp144 (His)
T2 construct: secreted from Pichia pastoris GS115, purified
Text: as §1, §2, §3

[3] = molecular target: T3, Candida antarctica lipase B (CALB) circularly permuted variant cp144a, L144/A141 (Moesziomyces antarcticus, UniProt P41365); assay: Initial rate of hydrolysis of DiFMU octanoate, cp144a
T3 construct: Pichia pastoris, purified
Text: as §1, §2
as §3, with “Corporation). […]” for “Corporation).”

[4] = molecular target: T4, Candida antarctica lipase B (CALB) circularly permuted variant cp148a, A148/L147 (Moesziomyces antarcticus, UniProt P41365); assay: Initial rate of hydrolysis of DiFMU octanoate, cp148a
T4 construct: Pichia pastoris, purified
Text: as §1, §2
as §3, with “Corporation). […]” for “Corporation).”

[5] = molecular target: T5, Candida antarctica lipase B (CALB) circularly permuted variant cp44, G44/T43 (Moesziomyces antarcticus, UniProt P41365); assay: Initial rate of hydrolysis of DiFMU octanoate, cp44
T5 construct: Pichia pastoris, purified
Text: as §1, §2, §3

[6] = molecular target: T6, Candida antarctica lipase B (CALB) circularly permuted variant cp268, P268/T267 (Moesziomyces antarcticus, UniProt P41365); assay: Initial rate of hydrolysis of DiFMU octanoate, cp268
T6 construct: Pichia pastoris, purified
Text: as §1, §2, §3
(§4) The present study included ten CALB variants. […]

[7] = molecular target: T7, Candida antarctica lipase B (CALB), wild type, SEQ ID NO: 2, L1/P317 (Moesziomyces antarcticus, UniProt P41365); assay: Initial rate of hydrolysis of DiFMU octanoate, wild type; conditions: kcat/KM (variant)/kcat/KM (wild type)
T7 sequence (P41365 26-342): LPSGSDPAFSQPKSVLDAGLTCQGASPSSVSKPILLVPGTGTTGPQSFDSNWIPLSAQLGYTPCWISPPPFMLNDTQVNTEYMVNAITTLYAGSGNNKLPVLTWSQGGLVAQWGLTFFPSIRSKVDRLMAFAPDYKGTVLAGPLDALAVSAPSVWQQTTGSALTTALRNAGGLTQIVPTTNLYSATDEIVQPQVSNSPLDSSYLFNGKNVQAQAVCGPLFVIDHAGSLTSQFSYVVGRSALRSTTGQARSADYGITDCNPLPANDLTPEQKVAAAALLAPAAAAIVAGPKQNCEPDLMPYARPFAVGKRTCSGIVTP
Text: as §1, with “octanoate. […]” for “octanoate.”
(§5) Lipase activity was determined by measuring the initial hydrolysis rate of p-NB and DiFMU octanoate at room temperature on a Synergy-HT microtiterplate reader (Bio-Tek Instruments, Winooski, Vt.). Stock solutions of p-NB (200 mM) and DiFMU octanoate (3 mM) were prepared in DMSO. p-NB hydrolysis over a substrate range of 0-1.6 mM was measured in 50 mM K-phosphate buffer (pH 7.5) at 400 nm ( ? for p-NB=13260 M^1 cm^−1) as described in Bender, M. L. et al., J Am Chem Soc 1968, 90, (1), 201-7, which is hereby incorporated by reference. […]

[8] = molecular target: T8, Candida antarctica lipase B (CALB) circularly permuted variant cp148, His-A148/L147 (Moesziomyces antarcticus, UniProt P41365); assay: Initial rate of hydrolysis of DiFMU octanoate, cp148 (His)
T8 construct: Pichia pastoris, purified
Text: as §1, §2, §3

[9] = molecular target: T9, Candida antarctica lipase B (CALB) circularly permuted variant cp150, S150/V149 (Moesziomyces antarcticus, UniProt P41365); assay: Initial rate of hydrolysis of DiFMU octanoate, cp150 (S150/V149)
T9 construct: Pichia pastoris, purified
Text: as §1, §2
as §3, with “Corporation). […]” for “Corporation).”

[10] = molecular target: T7, Candida antarctica lipase B (CALB), wild type, SEQ ID NO: 2, L1/P317; assay: Initial rate of hydrolysis of p-nitrophenol butyrate (pNB), wild type; conditions: kcat/KM (variant)/kcat/KM (wild type)
Text: as §1, with “octanoate. […]” for “octanoate.”
as §5

[11] = molecular target: T10, Candida antarctica lipase B (CALB) circularly permuted variant cp150, His-S150/V149 (Moesziomyces antarcticus, UniProt P41365); assay: Initial rate of hydrolysis of pNB, cp150 (His)
T10 construct: Pichia pastoris, purified
Text: as §1, §2, §3

[12] = molecular target: T4, Candida antarctica lipase B (CALB) circularly permuted variant cp148a, A148/L147; assay: Initial rate of hydrolysis of pNB, cp148a
Text: as §1, §2
as §3, with “Corporation). […]” for “Corporation).”

[13] = molecular target: T6, Candida antarctica lipase B (CALB) circularly permuted variant cp268, P268/T267; assay: Initial rate of hydrolysis of pNB, cp268
Text: as §1, §2, §3, §4

[14] = molecular target: T3, Candida antarctica lipase B (CALB) circularly permuted variant cp144a, L144/A141; assay: Initial rate of hydrolysis of pNB, cp144a
Text: as §1, §2
as §3, with “Corporation). […]” for “Corporation).”

[15] = molecular target: T2, Candida antarctica lipase B (CALB) circularly permuted variant cp144, His-L144/A141; assay: Initial rate of hydrolysis of pNB, cp144 (His)
Text: as §1, §2, §3

[16] = molecular target: T5, Candida antarctica lipase B (CALB) circularly permuted variant cp44, G44/T43; assay: Initial rate of hydrolysis of pNB, cp44
Text: as §1, §2, §3

[17] = molecular target: T9, Candida antarctica lipase B (CALB) circularly permuted variant cp150, S150/V149; assay: Initial rate of hydrolysis of pNB, cp150 (S150/V149)
Text: as §1, §2
as §3, with “Corporation). […]” for “Corporation).”

[18] = molecular target: T8, Candida antarctica lipase B (CALB) circularly permuted variant cp148, His-A148/L147; assay: Initial rate of hydrolysis of pNB, cp148 (His)
Text: as §1, §2, §3

[19] = 50 mM K-phosphate pH 7.0, room temperature
[20] = kcat/KM (variant)/kcat/KM (wild type)
[21] = 50 mM K-phosphate pH 7.5, room temperature

T1 sequence (P41365 26-342, stated change not applied): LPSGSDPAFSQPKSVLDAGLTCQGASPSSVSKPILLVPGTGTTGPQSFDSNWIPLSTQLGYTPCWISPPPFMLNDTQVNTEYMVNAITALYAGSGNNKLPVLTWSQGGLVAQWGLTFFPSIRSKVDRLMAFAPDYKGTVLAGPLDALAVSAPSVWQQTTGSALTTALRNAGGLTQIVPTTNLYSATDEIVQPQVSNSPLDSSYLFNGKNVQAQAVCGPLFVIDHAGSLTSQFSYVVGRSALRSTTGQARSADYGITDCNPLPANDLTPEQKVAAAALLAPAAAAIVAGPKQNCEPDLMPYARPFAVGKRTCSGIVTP

CCCCCCCC(=O)Oc1c(F)cc2c(C)cc(=O)oc2c1F [DiFMU octanoate, 6,8-difluoro-4-methylumbelliferyl octanoate]
Km [1, 19]: 2.7 ± 0.8 µM | relative specificity [1, 20]: 1.0 | kcat ([1]; pH 7.0, room temperature): 0.035 ± 0.0033 s⁻¹ | kcat/KM ([1]; pH 7.0, room temperature): 13000 M⁻¹ s⁻¹ | Km [2, 19]: 2 ± 0.5 µM | relative specificity [2, 20]: 0.6 | kcat ([2]; pH 7.0, room temperature): 0.017 ± 0.0017 s⁻¹ | kcat/KM ([2]; pH 7.0, room temperature): 8300 M⁻¹ s⁻¹ | Km [3, 19]: 3 ± 0.3 µM | relative specificity [3, 20]: 0.6 | kcat ([3]; pH 7.0, room temperature): 0.025 ± 0.0017 s⁻¹ | kcat/KM ([3]; pH 7.0, room temperature): 8300 M⁻¹ s⁻¹ | Km [4, 19]: 6.1 ± 0.7 µM | relative specificity [4, 20]: 0.7 | kcat ([4]; pH 7.0, room temperature): 0.0583 ± 0.0033 s⁻¹ | kcat/KM ([4]; pH 7.0, room temperature): 9500 M⁻¹ s⁻¹ | Km [5, 19]: 5.6 ± 0.8 µM | relative specificity [5, 20]: 0.13 | kcat ([5]; pH 7.0, room temperature): 0.0083 ± 0.00083 s⁻¹ | kcat/KM ([5]; pH 7.0, room temperature): 1700 M⁻¹ s⁻¹ | Km [6, 19]: 2.3 ± 0.3 µM | relative specificity [6, 20]: 15.6 | kcat ([6]; pH 7.0, room temperature): 0.48 ± 0.0183 s⁻¹ | kcat/KM ([6]; pH 7.0, room temperature): 208000 M⁻¹ s⁻¹ | relative specificity [7]: 1.0 | Km [8, 19]: 3.5 ± 0.5 µM | relative specificity [8, 20]: 0.4 | kcat ([8]; pH 7.0, room temperature): 0.025 ± 0.0033 s⁻¹ | kcat/KM ([8]; pH 7.0, room temperature): 5830 M⁻¹ s⁻¹ | Km [9, 19]: 5.5 ± 0.9 µM | relative specificity [9, 20]: 0.5 | kcat ([9]; pH 7.0, room temperature): 0.0367 ± 0.0033 s⁻¹ | kcat/KM ([9]; pH 7.0, room temperature): 6700 M⁻¹ s⁻¹

CCCC(=O)Oc1ccc([N+](=O)[O-])cc1 [pNB, p-Nitrophenyl butyrate]
relative specificity [10]: 1.0 | Km [11, 21]: 510 ± 90 µM | relative specificity [11, 20]: 1.4 | kcat ([11]; pH 7.5, room temperature): 8.67 ± 0.75 s⁻¹ | kcat/KM ([11]; pH 7.5, room temperature): 17000 M⁻¹ s⁻¹ | Km [12, 21]: 550 ± 70 µM | relative specificity [12, 20]: 1.2 | kcat ([12]; pH 7.5, room temperature): 8.02 ± 0.483 s⁻¹ | kcat/KM ([12]; pH 7.5, room temperature): 14500 M⁻¹ s⁻¹ | Km [13, 21]: 580 ± 90 µM | relative specificity [13, 20]: 7.1 | kcat ([13]; pH 7.5, room temperature): 50.85 ± 3.82 s⁻¹ | kcat/KM ([13]; pH 7.5, room temperature): 87700 M⁻¹ s⁻¹ | Km [14, 21]: 820 ± 100 µM | relative specificity [14, 20]: 0.7 | kcat ([14]; pH 7.5, room temperature): 7.25 ± 0.467 s⁻¹ | kcat/KM ([14]; pH 7.5, room temperature): 8830 M⁻¹ s⁻¹ | Km [15, 21]: 550 ± 50 µM | relative specificity [15, 20]: 0.4 | kcat ([15]; pH 7.5, room temperature): 2.97 ± 0.12 s⁻¹ | kcat/KM ([15]; pH 7.5, room temperature): 5330 M⁻¹ s⁻¹ | Km [16, 21]: 690 ± 90 µM | relative specificity [16, 20]: 0.01 | kcat ([16]; pH 7.5, room temperature): 0.1 ± 0.0083 s⁻¹ | kcat/KM ([16]; pH 7.5, room temperature): 170 M⁻¹ s⁻¹ | Km [17, 21]: 425 ± 50 µM | relative specificity [17, 20]: 1.1 | kcat ([17]; pH 7.5, room temperature): 5.78 ± 0.267 s⁻¹ | kcat/KM ([17]; pH 7.5, room temperature): 13700 M⁻¹ s⁻¹ | Km [18, 21]: 500 ± 30 µM | relative specificity [18, 20]: 0.5 | kcat ([18]; pH 7.5, room temperature): 2.85 ± 0.067 s⁻¹ | kcat/KM ([18]; pH 7.5, room temperature): 5670 M⁻¹ s⁻¹
